Laboratory results: patent publication US4737496A, “1,3,4,16b-tetra hydro-2H,10H-indolo[2,1-c]pyrazino-[1,2-a][1,4]benzodiazepines useful as serotonin-2 receptor antagonists” (Ciba-Geigy Corporation, priority 1986, dated 1988)
pIC50: −log10 of the molar value.

Assays:
serotonin-2 receptor [1] = target: T1, serotonin-2 receptor (Rattus norvegicus, UniProt P14842); assay: biochemical
Protocol: The serotonin-2 receptor (also named 5-hydroxytryptamine-2 or 5HT-2 receptor) binding properties are determined in vitro by measuring the ability of said compounds to inhibit the specific binding of ^3 H-ketanserin, in membrane preparations of frontal/parietal cortex from male Sprague-Dawley rats essentially as described by Battaglia et al. in Life Sciences 33, 2011 (1983). IC50 values, representing the concentration of compound required to displace 50% of ^3 H-ketanserin, are determined by log-logit analysis of the specific binding data.

serotonin-2 receptor [2] = target: T1, serotonin-2 receptor; assay: in vivo displacement of 3H-spiperone binding in rat brain; parameters: serotonin-2 receptors in rat brain; from tissue; host or cells: rat brain, in vivo; details: ip
Protocol: In vivo, the compounds according to the present application displace the binding of ^3 H-spiperone to serotonin-2 receptors in rat brain. Illustrative of the invention, the compound of example 1 displaces the binding of ^3 H-spiperone with an ED50 value of about 2 mg/Kg i.p.

serotonin-2 receptor [3] = target: T1, serotonin-2 receptor; assay: 5-hydroxytryptophane-induced head twitch test; assay type: in vivo; parameters: membrane preparations of frontal/parietal cortex from male Sprague-Dawley rats; from tissue; host or cells: frontal/parietal cortex membranes, male Sprague-Dawley rat; details: po, 5-HTP induced head twitch, read-out: effective dose in the head twitch test
Protocol: The head twitch test for assessing central nervous system serotonin-2 receptor antagonism in the rat is described in Neuropharmacology 16, 663 (1977) and in J. Pharmacol. Exp. Ther. 228, 133 (1984). The test is carried out as follows:
Male Wistar rats (120-180 g) are fasted for 18 hours prior to testing but allowed water ad libitum. All animals are pretreated with the peripheral decarboxylase inhibitor alpha-methyl-DOPA hydrazine (carbidopa, 25 mg/kg i.p., 4.0 ml/kg) followed 30 minutes later by 5-hydroxy-tryptophane (5-HTP 100 mg/kg s.c., 4.0 ml/kg). Ninety minutes after receiving 5-HTP, the rats are placed individually in plexiglass observation cages and the frequency of head twitches for each animal is counted over a 10 minute observation period. The test compound or vehicle is administered at either 0.5 hour at 1.0 ml/kg i.p. or at 1, 2 or 4 hours at 10 ml/kg p.o. prior to the observation period. ED50 values are determined by probit analysis.

T1 sequence (P14842 whole entry): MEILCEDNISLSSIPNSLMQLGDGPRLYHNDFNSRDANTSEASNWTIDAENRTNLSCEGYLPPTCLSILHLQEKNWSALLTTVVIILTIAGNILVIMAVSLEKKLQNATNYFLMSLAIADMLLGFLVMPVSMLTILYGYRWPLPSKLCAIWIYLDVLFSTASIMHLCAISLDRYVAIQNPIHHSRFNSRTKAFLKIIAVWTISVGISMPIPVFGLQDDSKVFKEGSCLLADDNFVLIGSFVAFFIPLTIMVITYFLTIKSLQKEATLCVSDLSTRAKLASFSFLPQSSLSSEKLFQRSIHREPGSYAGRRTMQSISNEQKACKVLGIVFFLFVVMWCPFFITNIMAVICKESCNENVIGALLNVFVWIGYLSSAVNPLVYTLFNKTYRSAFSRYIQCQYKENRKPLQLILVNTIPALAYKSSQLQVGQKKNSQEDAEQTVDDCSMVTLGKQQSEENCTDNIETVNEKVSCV

COC(=O)c1c2n(c3ccccc13)Cc1ccccc1N1CCN(C)CC21 (stereo not drawn) [Example 1, methyl 1,3,4,16b-tetrahydro-2-methyl-2H,10H-indolo[2,1-c]pyrazino[1,2-a][1,4]benzodiazepine-16-carboxylate]
pIC50 (serotonin-2 receptor [1]): ~8.40 | ED50 (serotonin-2 receptor [2]): ~2 mg/kg | ED50 (serotonin-2 receptor [3]): ~3 mg/kg
